Results taken from patent US7892312B2, “Nitrification inhibitor and soil improver and fertilizer containing the same” (priority 2005, dated 2011).

Test system: Nitrosomonas europaea IF014298
Experiment: in-vitro nitrification bacteria biological luminescence test
Type: cell-based
Description: Observation was conducted using in-vitro nitrification bacteria. Explanation is first made of preparation of suspension of the nitrification bacteria used for observation.
The nitrification bacteria (Nitrosomonas europaea IF014298. See Non-Patent Reference 4.) with a bacteria-origin luciferase gene (luxAB) introduced therein was aerobically cultivated in P culture media containing 25 mg/1000 cm^3 of kanamycin at 30° C. for 7-9 days, and after washing, suspended in fresh P culture media, thereby nitrification bacteria suspension was prepared. This nitrification bacteria suspension was kept in the dark place for 30 minutes or longer before experiment.
The composition of P culture media consists of 2.5 g of (NH4)2SO4, 0.7 g of KH2PO4, 13.5 g of Na2HPO4, 0.5 g of NaHCO3, 100 mg of MgSO4-7H2O, 5 mg of CaCl2-2H2O, 1 mg of Fe-EDTA, and 1000 cm^3 of water, and its pH was 8.0.
Nitrification function was evaluated by, after mixing in-vitro the aqueous solution of nitrification bacteria suspension consisting of 0.25 cm^3 of said nitrification bacteria suspension and 0.2 cm^3 of water and 0.01 cm^3 of the sample solution of each Example and Comparative Example, measuring biological luminescence accompanying nitrification reaction during cultivation at 15° C. for 30 minutes using a luminometer (Turner Designs, TD20/20). […] Therefore, the luminescence of the case where a sample solution of each Example and Comparative Example is added to the aqueous solution of nitrification bacteria suspension divided by the luminescence of the case of aqueous bacteria suspension without addition of a sample solution of each Example and Comparative Example was defined as nitrification-inhibitory ratio.
The concentration of sample solutions of each Example and Comparative Example in this case was 20 ppm.
Measurement was conducted as mentioned above with the concentration of sample solutions of each Example and Comparative Example in the aqueous nitrification bacteria suspension varying 0-20 ppm.

[1] = sample concentration 20 ppm, 15° C., 30 minutes

Compound | inhibition of nitrification reaction (in words) (sample concentration 20 ppm) | 80% inhibition concentration (concentration at which nitrification-inhibitory ratio was 80%) | nitrification-inhibitory ratio (sample concentration 8 ppm) [%] | nitrification-inhibitory ratio (sample concentration 12 ppm) [%] | nitrification-inhibitory ratio (sample concentration 16 ppm) [%] | nitrification-inhibitory ratio [1] [%]
CCCCC/C=C\C/C=C\CCCCCCCC(=O)OCC [ethyl linoleate, reference compound] | not inhibited | – | – | – | – | –
CC/C=C\C/C=C\C/C=C\CCCCCCCC(=O)OC [methyl α-linolenate, reference compound] | not inhibited | – | – | – | – | –
CCCCCCCC/C=C\CCCCCCCC(=O)O [oleic acid, reference compound] | not inhibited | – | – | – | – | –
CCCCC/C=C\C/C=C\CCCCCCCC(=O)OC [methyl linoleate] | – | ~8 ppm | 80 | 90 | 92 | 95
CCCCC/C=C\C/C=C\C/C=C\C/C=C\CCCC(=O)O [arachidonic acid, reference compound] | not inhibited | – | – | – | – | –
CCCCC/C=C\C/C=C\C/C=C\CCCCC(=O)O [γ-linolenic acid] | – | about 16 ppm | 30 | 72 | 90 | 95
CCCCCCCCCCCCCCCCCC(=O)O [stearic acid, reference compound] | not inhibited | – | – | – | – | –
CC/C=C\C/C=C\C/C=C\CCCCCCCC(=O)O [α-linolenic acid] | – | ~12 ppm | 40 | 80 | 90 | 95
CCCCC/C=C\C/C=C\CCCCCCCC(=O)O [linoleic acid] | – | about 16 ppm | 40 | 65 | 90 | 95
Clc1cccc(C(Cl)(Cl)Cl)n1 [nitrapyrin, 2-chloro-6-Trichloromethylpyridine, reference compound] | – | 4 ppm | – | – | – | –
N#CN=C(N)N [dicyandiamide, reference compound] | – | 185 ppm | – | – | – | –
CCCCCCCC/C=C\CCCCCCCC(=O)OC [methyl oleate, reference compound] | not inhibited | – | – | – | – | –
